Data on 19 molecules can be found in patent US11564969B2, “Immunorhelin compounds for intracellular infections” (ISR IMMUNE SYSTEM REGULATION HOLDING AB (PUBL), priority 2017, dated 2023).

For one data set, the target named is T1, GnRHR (Homo sapiens, UniProt P30968).
T1 sequence (P30968 1-328): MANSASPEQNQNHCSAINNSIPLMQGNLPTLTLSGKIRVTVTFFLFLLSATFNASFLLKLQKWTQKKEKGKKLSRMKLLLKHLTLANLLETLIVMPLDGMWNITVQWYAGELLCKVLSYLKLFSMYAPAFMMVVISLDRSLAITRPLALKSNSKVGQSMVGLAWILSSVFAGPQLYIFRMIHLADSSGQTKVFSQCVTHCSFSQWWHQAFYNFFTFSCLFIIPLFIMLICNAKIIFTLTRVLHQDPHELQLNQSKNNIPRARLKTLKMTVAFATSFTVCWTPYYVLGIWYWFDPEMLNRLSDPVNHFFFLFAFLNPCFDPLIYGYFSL

A short description of data set [1]: Solubility analysis in PBS (Analysis Method B). The data set is classed as physicochemical. Particulars: pH 7.4. The procedure:
The solubility of compounds of the invention was tested as described in the general methods. Solubility was then graded according to a rating between 1 to 5, where 1 is most soluble and 5 is least soluble.

SMILES strings stand for the structures. Where a name gives a salt, the structure may show the parent alone. Read-outs that look alike come from different tables or passages of the source. Square brackets hold non-standard residues; d marks the D form. Peptide text beside a SMILES is read from it. * marks the point of attachment. d2Nal = N[C@H](Cc1ccc2ccccc2c1)C(=O)O; pGlu = O=C1CC[C@@H](C(=O)O)N1; tBu = CC(C)(C)*

Turning to `CCNC(=O)[C@@H]1CCCN1C(=O)[C@H](CCCNC(=N)N)NC(=O)[C@H](CC(C)C)NC(=O)[C@@H](COC(C)(C)C)NC(=O)[C@H](Cc1c[nH]cn1)NC(=O)[C@H](CO)NC(=O)[C@H](Cc1c[nH]c2ccccc12)NC(=O)[C@H](Cc1c[nH]cn1)NC(=O)[C@@H]1CCC(=O)N1` [Compound 6, pGlu-His-Trp-Ser-His-D-Ser(tBu)-Leu-Arg-Pro-NHEt] ([pGlu]HWSH[dS](tBu)LRP-NHEt), the “GNRHR Stimulation at 1 μM” value at GnRHR (1000.0) stood at 88 percentage. Besides, in data set [1], the Solubility grading worked out at 1.

As for `CCNC(=O)[C@@H]1CCCN1C(=O)[C@H](CCCNC(=N)N)NC(=O)[C@H](Cc1c[nH]c2ccccc12)NC(=O)[C@@H](COC(C)(C)C)NC(=O)[C@H](Cc1ccc(O)cc1)NC(=O)[C@H](CO)NC(=O)[C@H](Cc1c[nH]c2ccccc12)NC(=O)[C@H](Cc1c[nH]cn1)NC(=O)[C@@H]1CCC(=O)N1` [Compound 8, pGlu-His-Trp-Ser-Tyr-D-Ser(tBu)-Trp-Arg-Pro-NHEt] ([pGlu]HWSY[dS](tBu)WRP-NHEt), the “GNRHR Stimulation at 1 μM” value on GnRHR (1000.0) is reported as 86 percentage. The molecule further showed a Solubility grading in data set [1] of 2. The corresponding values for `CCNC(=O)[C@@H]1CCCN1C(=O)[C@H](Cc1ccc(O)cc1)NC(=O)[C@H](CC(C)C)NC(=O)[C@@H](COC(C)(C)C)NC(=O)[C@H](Cc1ccc(O)cc1)NC(=O)[C@H](CO)NC(=O)[C@H](Cc1c[nH]c2ccccc12)NC(=O)[C@H](Cc1c[nH]cn1)NC(=O)[C@@H]1CCC(=O)N1` [Compound 9, pGlu-His-Trp-Ser-Tyr-D-Ser(tBu)-Leu-Tyr-Pro-NHEt] ([pGlu]HWSY[dS](tBu)LYP-NHEt) are 78 percentage and 1. Taken in the same sequence, the figures for `CCNC(=O)[C@@H]1CCCN1C(=O)[C@H](CCCNC(=N)N)NC(=O)[C@H](Cc1c[nH]c2ccccc12)NC(=O)[C@@H](COC(C)(C)C)NC(=O)[C@H](Cc1c[nH]cn1)NC(=O)[C@H](CO)NC(=O)[C@H](Cc1c[nH]c2ccccc12)NC(=O)[C@H](Cc1c[nH]cn1)NC(=O)[C@@H]1CCC(=O)N1` [Compound 10, pGlu-His-Trp-Ser-His-D-Ser(tBu)-Trp-Arg-Pro-NHEt] ([pGlu]HWSH[dS](tBu)WRP-NHEt) were 81 percentage and 1. Taken in the same sequence, the figures for `CCNC(=O)[C@@H]1CCCN1C(=O)[C@H](Cc1ccc(O)cc1)NC(=O)[C@H](CC(C)C)NC(=O)[C@@H](COC(C)(C)C)NC(=O)[C@H](Cc1c[nH]cn1)NC(=O)[C@H](CO)NC(=O)[C@H](Cc1c[nH]c2ccccc12)NC(=O)[C@H](Cc1c[nH]cn1)NC(=O)[C@@H]1CCC(=O)N1` [Compound 11, pGlu-His-Trp-Ser-His-D-Ser(tBu)-Leu-Tyr-Pro-NHEt] ([pGlu]HWSH[dS](tBu)LYP-NHEt) were 76 percentage and 1. Consider `CCNC(=O)[C@@H]1CCCN1C(=O)[C@H](Cc1ccc(O)cc1)NC(=O)[C@H](Cc1c[nH]c2ccccc12)NC(=O)[C@@H](COC(C)(C)C)NC(=O)[C@H](Cc1ccc(O)cc1)NC(=O)[C@H](CO)NC(=O)[C@H](Cc1c[nH]c2ccccc12)NC(=O)[C@H](Cc1c[nH]cn1)NC(=O)[C@@H]1CCC(=O)N1` [Compound 12, pGlu-His-Trp-Ser-Tyr-D-Ser(tBu)-Trp-Tyr-Pro-NHEt] ([pGlu]HWSY[dS](tBu)WYP-NHEt), for which the “GNRHR Stimulation at 1 μM” value on GnRHR (1000.0) came to 80 percentage. In data set [1], this molecule returned a Solubility grading of 4. Taken in the same sequence, the figures for `CCNC(=O)[C@@H]1CCCN1C(=O)[C@H](Cc1ccc(O)cc1)NC(=O)[C@H](Cc1c[nH]c2ccccc12)NC(=O)[C@@H](COC(C)(C)C)NC(=O)[C@H](Cc1c[nH]cn1)NC(=O)[C@H](CO)NC(=O)[C@H](Cc1c[nH]c2ccccc12)NC(=O)[C@H](Cc1c[nH]cn1)NC(=O)[C@@H]1CCC(=O)N1` [Compound 13, pGlu-His-Trp-Ser-His-D-Ser(tBu)-Trp-Tyr-Pro-NHEt] ([pGlu]HWSH[dS](tBu)WYP-NHEt) were 87 percentage and 3.

In turn, `CC(C)C[C@H](NC(=O)[C@@H](Cc1c[nH]c2ccccc12)NC(=O)[C@H](Cc1ccc(O)cc1)NC(=O)[C@H](CO)NC(=O)[C@H](Cc1c[nH]c2ccccc12)NC(=O)[C@H](Cc1c[nH]cn1)NC(=O)[C@@H]1CCC(=O)N1)C(=O)N[C@@H](Cc1ccc(O)cc1)C(=O)N1CCC[C@H]1C(=O)NCC(N)=O` [Compound 14, pGlu-His-Trp-Ser-Tyr-D-Trp-Leu-Tyr-Pro-Gly-amide] ([pGlu]HWSY[dW]LYPG-NH2) gave a Solubility grading in data set [1] of 4.

`CC(C)C[C@H](NC(=O)[C@@H](Cc1c[nH]c2ccccc12)NC(=O)[C@H](Cc1c[nH]cn1)NC(=O)[C@H](CO)NC(=O)[C@H](Cc1c[nH]c2ccccc12)NC(=O)[C@H](Cc1c[nH]cn1)NC(=O)[C@@H]1CCC(=O)N1)C(=O)N[C@@H](Cc1ccc(O)cc1)C(=O)N1CCC[C@H]1C(=O)NCC(N)=O` [Compound 16, pGlu-His-Trp-Ser-His-D-Trp-Leu-Tyr-Pro-Gly-amide] ([pGlu]HWSH[dW]LYPG-NH2) registered a Solubility grading in data set [1] of 2.

`N=C(N)NCCC[C@H](NC(=O)[C@H](Cc1c[nH]c2ccccc12)NC(=O)[C@@H](Cc1c[nH]c2ccccc12)NC(=O)[C@H](Cc1c[nH]cn1)NC(=O)[C@H](CO)NC(=O)[C@H](Cc1c[nH]c2ccccc12)NC(=O)[C@H](Cc1c[nH]cn1)NC(=O)[C@@H]1CCC(=O)N1)C(=O)N1CCC[C@H]1C(=O)NCC(N)=O` [Compound 20, pGlu-His-Trp-Ser-His-D-Trp-Trp-Arg-Pro-NHEt] showed a Solubility grading in data set [1] of 3. Turning to `CC(C)C[C@H](NC(=O)[C@@H](Cc1ccc2ccccc2c1)NC(=O)[C@H](Cc1c[nH]cn1)NC(=O)[C@H](CO)NC(=O)[C@H](Cc1c[nH]c2ccccc12)NC(=O)[C@H](Cc1c[nH]cn1)NC(=O)[C@@H]1CCC(=O)N1)C(=O)N[C@@H](CCCNC(=N)N)C(=O)N1CCC[C@H]1C(=O)NCC(N)=O` [Compound 23, pGlu-His-Trp-Ser-His-D-Nal-Leu-Arg-Pro-Gly-amide] ([pGlu]HWSH[d2Nal]LRPG-NH2), the “GNRHR Stimulation at 1 μM” value at GnRHR (1000.0) is 106 percentage. For the same molecule, in data set [1], the Solubility grading is 1. Taken in the same sequence, the figures for `N=C(N)NCCC[C@H](NC(=O)[C@H](Cc1c[nH]c2ccccc12)NC(=O)[C@@H](Cc1ccc2ccccc2c1)NC(=O)[C@H](Cc1ccc(O)cc1)NC(=O)[C@H](CO)NC(=O)[C@H](Cc1c[nH]c2ccccc12)NC(=O)[C@H](Cc1c[nH]cn1)NC(=O)[C@@H]1CCC(=O)N1)C(=O)N1CCC[C@H]1C(=O)NCC(N)=O` [Compound 24, pGlu-His-Trp-Ser-Tyr-D-Nal-Trp-Arg-Pro-Gly-amide] ([pGlu]HWSY[d2Nal]WRPG-NH2) were 87 percentage and 5. In data set [1], `CCNC(=O)[C@@H]1CCCN1C(=O)[C@H](CCCNC(=N)N)NC(=O)[C@H](CC(C)C)NC(=O)[C@@H](Cc1cn(Cc2ccccc2)cn1)NC(=O)[C@H](Cc1ccc(O)cc1)NC(=O)[C@H](CO)NC(=O)[C@H](Cc1c[nH]c2ccccc12)NC(=O)[C@H](Cc1cnc[nH]1)NC(=O)[C@@H]1CCC(=O)N1` [Histrelin TFA, histrelin, reference compound] showed a Solubility grading of 2. Same read-out and setting: next, `CCNC(=O)[C@@H]1CCCN1C(=O)[C@H](CCCNC(=N)N)NC(=O)[C@H](CC(C)C)NC(=O)[C@@H](Cc1cn(Cc2ccccc2)cn1)NC(=O)[C@H](Cc1ccc(O)cc1)NC(=O)[C@H](CO)NC(=O)[C@H](Cc1c[nH]c2ccccc12)NC(=O)[C@H](Cc1cnc[nH]1)NC(=O)[C@@H]1CCC(=O)N1` [Histrelin acetate, histrelin, reference compound]: 4. On the same count and under the same terms, next, `CCNC(=O)[C@@H]1CCCN1C(=O)[C@H](CCCNC(=N)N)NC(=O)[C@H](CC(C)C)NC(=O)[C@@H](CC(C)C)NC(=O)[C@H](Cc1ccc(O)cc1)NC(=O)[C@H](CO)NC(=O)[C@H](Cc1c[nH]c2ccccc12)NC(=O)[C@H](Cc1c[nH]cn1)NC(=O)[C@@H]1CCC(=O)N1` [Leuprorelin TFA, leuprorelin, reference compound]: 1. Still for that read-out and setting: the figure for `CCNC(=O)[C@@H]1CCCN1C(=O)[C@H](CCCNC(=N)N)NC(=O)[C@H](CC(C)C)NC(=O)[C@@H](CC(C)C)NC(=O)[C@H](Cc1ccc(O)cc1)NC(=O)[C@H](CO)NC(=O)[C@H](Cc1c[nH]c2ccccc12)NC(=O)[C@H](Cc1c[nH]cn1)NC(=O)[C@@H]1CCC(=O)N1` [Leuprorelin acetate, leuprorelin, reference compound] is 2. Turning to `CC(C)C[C@H](NC(=O)[C@@H](Cc1ccc2ccccc2c1)NC(=O)[C@H](Cc1ccc(O)cc1)NC(=O)[C@H](CO)NC(=O)[C@H](Cc1c[nH]c2ccccc12)NC(=O)[C@H](Cc1c[nH]cn1)NC(=O)[C@@H]1CCC(=O)N1)C(=O)N[C@@H](CCCNC(=N)N)C(=O)N1CCC[C@H]1C(=O)NCC(N)=O` [Nafarelin, nafarelin, reference compound], the “GNRHR Stimulation at 1 μM” value on GnRHR (1 μM, calcium assay, CHO-K1 cells) is on record as 100 (n = 2) percentage.

For the molecule `CC(C)C[C@H](NC(=O)[C@@H](Cc1ccc2ccccc2c1)NC(=O)[C@H](Cc1ccc(O)cc1)NC(=O)[C@H](CO)NC(=O)[C@H](Cc1c[nH]c2ccccc12)NC(=O)[C@H](Cc1c[nH]cn1)NC(=O)[C@@H]1CCC(=O)N1)C(=O)N[C@@H](CCCNC(=N)N)C(=O)N1CCC[C@H]1C(=O)NCC(N)=O` [Naferelin TFA, nafarelin, reference compound], the Solubility grading in data set [1] was determined as 1. On the same count and under the same terms, the figure for `CC(C)C[C@H](NC(=O)[C@@H](Cc1ccc2ccccc2c1)NC(=O)[C@H](Cc1ccc(O)cc1)NC(=O)[C@H](CO)NC(=O)[C@H](Cc1c[nH]c2ccccc12)NC(=O)[C@H](Cc1c[nH]cn1)NC(=O)[C@@H]1CCC(=O)N1)C(=O)N[C@@H](CCCNC(=N)N)C(=O)N1CCC[C@H]1C(=O)NCC(N)=O` [Naferelin acetate, nafarelin, reference compound] is 2.
